Consider two compounds from patent US11555035B2, “Heterocyclic compound and harmful arthropod-controlling agent containing same” (SUMITOMO CHEMICAL COMPANY, LIMITED, priority 2017, dated 2023).

The term mortality denotes the percentage killed. A low value points to more survivors.

This series concerns German cockroaches (Blattella germanica). Kind of series: Test method 9: treated filter paper with sucrose, German cockroaches. The series is classed as in vivo. The settings on record: 500 ppm, 0.7 mL on filter paper, male adults, after 6 days. The procedure:
Next, Test Examples are used to show effects of the Present compounds on harmful arthropods. In the following Test Examples, the tests were carried out at 25° C.
Each test compound is formulated according to the process described in the Formulation Example 5 to obtain each formulation, and water is added thereto to prepare a diluted solution containing a prescribed concentration of each test compound.
A filter paper having a diameter of 5.5 cm is lined with the inside bottom of a cup having a diameter of 5.5 cm, each of said diluted solutions (0.7 mL) is added dropwise on the filter paper, and sucrose (30 mg) is homogeneously placed into said cup as a feed. Two(2) male adult German cockroaches (Blattella germanica) are released into said cup, and the cup is covered. After 6 days, life and death of the German cockroach are examined, the number of the dead insects is counted, and the mortality of insects is calculated by the following equation. Mortality(%)=(Number of dead insects/Number of test insects)×100

With `CCS(=O)(=O)c1cc(-c2ncc(C#N)cn2)cnc1-c1nc2cc(C(F)(F)F)cnc2n1C` [compound 2], the mortality is listed as 100%.
In turn, `CCS(=O)(=O)c1cc(-c2ncc(C#N)cn2)c(N)nc1-c1nc2cc(C(F)(F)F)cnc2n1C` [compound 7] showed a mortality of 100%.
